Values quoted from earlier work, collected in US10945992B1, “Dosage forms of rofecoxib and related methods” (Tremeau Pharmaceuticals, Inc., priority 2019, dated 2021).

Assays:
[1] = cited from earlier work; for incidence of gastrointestinal (GI) ulcers visualized at endoscopy compared to certain non-selective NSAIDs: FDA 2005; for risk of serious adverse cardiovascular events compared to placebo: long-term controlled clinical trial / FDA 2005
patients with HA = settings: six weeks of Part 1; P<0.001; cited from earlier work

SMILES: Cc1ccc(-c2cc(C(F)(F)F)nn2-c2ccc(S(N)(=O)=O)cc2)cc1 [celecoxib]
- incidence of gastrointestinal (GI) ulcers visualized at endoscopy compared to certain non-selective NSAIDs [1]: reduction
- risk of serious adverse cardiovascular events compared to placebo [1]: increased risk

SMILES: Cc1ccc(-c2ncc(Cl)cc2-c2ccc(S(C)(=O)=O)cc2)cn1 [etoricoxib]
- improvement on all endpoints versus placebo (patients with HA): clinically and statistically significant improvement

SMILES: Cc1onc(-c2ccccc2)c1-c1ccc(S(N)(=O)=O)cc1 [valdecoxib]
- incidence of gastrointestinal (GI) ulcers visualized at endoscopy compared to certain non-selective NSAIDs [1]: reduction
- risk of serious adverse cardiovascular events compared to placebo [1]: increased risk
